Assay results from patent US4112101A, “N-(Pyridyl)-1H-(or 2H) tetrazole-5-carboxamide derivatives for the prevention of immediate type hypersensitivity reactions” (American Home Products Corporation, priority 1977, dated 1978).
Where a name gives a salt, the structure may show the parent alone.

Tested on: passive cutaneous anaphylaxis using rat homocytotropic antibody
Experiment: rat passive cutaneous anaphylaxis test (rat PCA test)
Type: in vivo
Method: The technique employed to establish the anti-allergic activity of the 1H-tetrazole-5-carboxamide derivatives is reported in Immunology, vol. 16, pp. 749-760 (1969) and involves four male Charles River rats (200-250 grams body weight) per group to provide a control, a host for administration of a standard anti-allergic compound (disodium cromoglycate) and animals for the test compound. The rats were injected intracutaneously on their shaved backs with sera from rats immunized with egg albumin and pertussis vaccine. Twenty-four hours after the initial injections, the test compound is administered intraperitoneally or orally at a dosage level of 200 milligrams per kilogram host body weight or less. Five minutes later one milliliter of a 0.5 percent solution of Evans blue dye and 8 milligrams of egg albumin is injected intravenously. After 40 minutes, the animal is sacrificed and the bleb size on its back is measured. The mean bleb size for the animals administered the test compound is calculated and the percent inhibition is determined by comparison with the control animal.
In other words, the compounds of this invention block the release of mediators commonly resulting from the antigen-antibody reaction as exemplified in a passive cutaneous anaphylaxis test (PCA) using rat homocytotropic antibody -- a known correlate of human reaginic antibody.

Structure (SMILES): O=C(Nc1ccccn1)c1nn[nH]n1 [Example 1, N-(2-Pyridinyl)-1H-tetrazole-5-carboxamide, sodium salt]
- % inhibition (intraperitoneal (i.p.), dose 1.0 mg/kg): 82.6%
- % inhibition (intraperitoneal (i.p.), dose 10 mg/kg): 99.0%
- % inhibition (intraperitoneal (i.p.), dose 100 mg/kg): 72.5%
- % inhibition (intraperitoneal (i.p.), dose .01 mg/kg): 24.8%
- % inhibition (intraperitoneal (i.p.), dose .1 mg/kg): 41.9%
- % inhibition (oral (p.o.), dose 1 mg/kg): 62.6%
- % inhibition (oral (p.o.), dose 10 mg/kg): 94.8%
- % inhibition (oral (p.o.), dose 100 mg/kg): 100.0%
- % inhibition (oral (p.o.), dose .01 mg/kg): 40.4%
- % inhibition (oral (p.o.), dose .1 mg/kg): 25.1%
